In patent US6177475A, “Methods of using integrin modulators for treatment of inflammation” (priority 1997, dated 2001):
Like-named read-outs stand apart in the source and are kept apart here.

Experiments:
[1] = system: H9RF cells / H9 cells (HIV-1RF); test: HIV-induced syncytium formation, H9RF donor with H9 recipient; assay type: cell-based
From the text: For curve 1, the effect of Ajoene on the fusion of cultured, intact H9 cells with HIV infected H9RF cells is disclosed. For this curve, the vertical graph axis pertains to the maximum amount of syncytia formed in the absence of Ajoene (100 percent), while the points on line 1 represent percentages of such an amount of syncytia formed in the presence of varying concentrations of Ajoene (micromoles per liter).
Chronically infected and uninfected cell lines (HIV donors and targets, respectively) were maintained as suspension cultures in RPNI-1640 medium supplemented with 10% (v/v) heat-inactivated fetal calf serum, 50 micrograms/ml gentamycin and 2 mM L-glutamine. HIV donors used were (1) a cloned population of H9 cells harboring the genome of HIV-1RF (H9RF cells); and (2) a cloned population of SupT1 cells harboring the genome of HIV-1LAV-BRU (SupT1LAV-BRU cells). To assess the effect of Ajoene on syncytium formation, the donors were mixed with their respective recipients, H9 and SupT1, at a ratio of 1:2 in 96-well flat-bottomed plates (3×10^5 cells per well). Log 10 dilutions of Ajoene were then introduced into the wells, and the cells were cocultured for 16 h. Control wells received the vehicle of Ajoene. By the end of the incubation period syncytia were counted, and the values of IC50 for Ajoene were calculated by plotting relative amounts of syncytia (percent of the syncytia formed in the absence of the compound) against Ajoene concentration.

[2] = system: MOLT-4 cells and syncytiotrophoblasts; assay type: cell-based, human
Protocol: MOLT-4 clone 8 cells were labeled with calcein-AM, pretreated with different concentrations of Ajoene (0-200 micromoles per liter) and incubated with cultured term syncytiotrophoblast cells at 37° C. for one hour in the presence of Ajoene. Adhesion was measured directly as fluorescence units after background correction. Controls included measuring adhesion in the presence of the appropriate carrier solvent.
In order to assess the ability of Ajoene to inhibit lymphocyte-mediated HIV infection of syncytiotrophoblasts, HIV-1LBi -infected MOLT-4 cells were added to adherent cultures of uninfected syncytiotrophoblasts in the presence and absence of Ajoene. Various additional control conditions were also established. First, some wells received filtered (0.45 micrometer) supernatant of cell-free HIV from infected cell cultures. Yet other negative controls included syncytiotrophoblasts cultured alone and syncytiotrophoblasts cultured with uninfected MOLT-4 cells. After 24 hours, the cocultures were washed to removed unbound lymphocytes, fixed, permeabilized, stained for viral core antigens (p24 and p55), and viewed under a fluorescence microscope.

[3] = system: platelets (GP IIb/IIIa); test: Platelet aggregation in platelet-rich plasma (turbidimetric); assay type: cell-based; conditions: 1:1 mixture of E- and Z-stereoisomers, read-out: IC50 for inhibition of platelet aggregation in PRP
Protocol: Platelet aggregation was measured turbidimetrically on a standard platelet aggregometer equipped with a recorder. Samples of platelet-rich plasma (PRP) were standardized with respect to the cell density (3×10^8per ml); maximal light transmission (LT) was calibrated with platelet-poorplasma (PPP). Aliquots of PRP (0.25 ml in glass cuvettes) were stirred in the cell of the device (1000 rpm, 37° C.) with Ajoene (0-100 micromoles per liter final concentration) for 1 min., followed by addition of the aggregation stimuli. (Unless specified otherwise, all the experiments described in this Application were performed with Ajoene that represented a 1:1 mixture of E- and Z-stereoisomers.) LT increments were traced for 5 min. Maximal rate of aggregation was derived from the slope of each curve; IC50 for Ajoene was determined by a method such as that described in Vrzheshch, et al., Cell Response Kinetics: the Phenomenon of Supercooperativity in Aggregation of Human Platelets, 66 Thrombos. Res. 537, 1992.
The requirement of integrins for the formation of cell-to-cell contacts in each of these systems has long been established. It is known that in platelets the relevant integrin is GP IIb/IIIa (β3). […]

Structure (SMILES): C=CCSSC=CC[S+]([O-])CC=C (centres unmarked) [Ajoene, 4,5,9-trithiadodeca-1,6,11-triene-9-oxide]
- syncytia found (FIG. 1, curve 1) ([1]; 50 micromoles of Ajoene per liter): Essentially no syncytia were found
- IC50 ([1]; Human immunodeficiency virus 1, H9, 16 h incubation, both donor/recipient systems, read-out: IC50 range for fusion and syncytium formation): 5 to 50 nM
- IC50 ([1]; Human immunodeficiency virus 1, H9RF donor, H9 recipient, 16 h, read-out: IC50 of Ajoene, syncytium formation): ~50 nM
- IC50 ([1]; Human immunodeficiency virus 1, H9 with H9RF cells, read-out: IC50 of syncytium formation (FIG. 1, curve 1)): 45 nM
- toxic effects to the cells ([2]; HIV infection assay (lymphocyte-mediated), 200 micromoles per liter): without toxic effects to the cells
- toxic effects on cells ([2]; adhesion assay, up to 200 micromoles per liter): Without any toxic effects on cells
- toxic effects in cell-free HIV infection ([2]; cell-free HIV, 200 micromoles per liter and lower concentrations tested): without toxic effects
- IC50 [3]: ~50000 nM
